Converted amounts (≈) assume the structure as drawn.
Tests used:
Assay in all cases: Antibacterial effectiveness testing, growth inhibition in BHI broth (absorbance 600 nm)
Details in all cases: 37° C., 24 h
P. aeruginosa, ATCC-9027 = assay type: cell-based
Description: (§1) The antibacterial effectiveness testing was run against 7 strains of bacteria using the following protocol. […] Bacteria (either E. coli or P. aeruginosa or S. aureus or […] or K. pneumonia or A. baumanni or C. albicans) are added to all well except the control and incubated at 37° C. for 24 h. The absorbance was read at 600 nm. MIC90 was calculated as the concentration at which 90% growth inhibition is noticed. N=4 replicates for each compound and bacteria.

A. baumanni-ATCC-19606 = assay type: cell-based
Description: as §1

K. pneumonia, ATCC-18804 = assay type: cell-based
Description: as §1

S. aeureus, ATCC 6538 = assay type: cell-based, S. aureus
Description: as §1, with “protocol. Protocol:” for “protocol.”

S. marcenes, ATCC-21639 = assay type: cell-based
Description: as §1, with “protocol. Protocol:” for “protocol.”

C. albicans, ATCC1-0231 = assay type: cell-based
Description: as §1, with “protocol. Protocol:” for “protocol.”

E. coli, ATCC-8739 = assay type: cell-based
Description: as §1, with “protocol. Protocol:” for “protocol.”

[1] = * BHI not containing acetic acid/BSA, beginning 1000 μg/mL suspension
[2] = no asterisk (BHI containing acetic acid/BSA), beginning 1000 μg/mL suspension
[3] = no asterisk, beginning 1000 μg/mL in DMSO/Water

SMILES | MIC90 (P. aeruginosa, ATCC-9027) (P. aeruginosa, ATCC-9027; [1]) [µg/mL] | MIC90 (P. aeruginosa, ATCC-9027) (P. aeruginosa, ATCC-9027; [2]) [µg/mL] | MIC90 (P. aeruginosa, ATCC-9027) (P. aeruginosa, ATCC-9027; [3]) [µg/mL] | MIC (A. baumanni-ATCC-19606) (A. baumanni-ATCC-19606; [1]) [µg/mL] | MIC (A. baumanni-ATCC-19606) (A. baumanni-ATCC-19606; [2]) [µg/mL] | MIC (A. baumanni-ATCC-19606) (A. baumanni-ATCC-19606; [3]) [µg/mL] | MIC (K. pneumonia, ATCC-18804) (K. pneumonia, ATCC-18804; [2]) [µg/mL] | MIC (K. pneumonia, ATCC-18804) (K. pneumonia, ATCC-18804; [3]) [µg/mL] | MIC (S. aeureus, ATCC 6538) (S. aeureus, ATCC 6538; [1]) [µg/mL] | MIC (S. aeureus, ATCC 6538) (S. aeureus, ATCC 6538; [2]) [µg/mL] | MIC (S. aeureus, ATCC 6538) (S. aeureus, ATCC 6538; [3]) [µg/mL] | MIC (S. marcenes, ATCC-21639) (S. marcenes, ATCC-21639; [1]) [µg/mL] | MIC (S. marcenes, ATCC-21639) (S. marcenes, ATCC-21639; [2]) [µg/mL] | MIC (S. marcenes, ATCC-21639) (S. marcenes, ATCC-21639; [3]) [µg/mL] | MIC (C. albicans, ATCC1-0231) (C. albicans, ATCC1-0231; [2]) [µg/mL] | MIC (C. albicans, ATCC1-0231) (C. albicans, ATCC1-0231; [3]) [µg/mL] | MIC90 (E. coli, ATCC-8739) (E. coli, ATCC-8739; [1]) [µg/mL] | MIC90 (E. coli, ATCC-8739) (E. coli, ATCC-8739; [2]) [µg/mL] | MIC90 (E. coli, ATCC-8739) (E. coli, ATCC-8739; [3]) [µg/mL] | MIC (K. pneumonia, ATCC-18804) (K. pneumonia, ATCC-18804; [1]) [µg/mL]
N=C(NCCN(CCNC(=N)NC(=N)Nc1ccc(Cl)cc1)CCNC(=N)NC(=N)Nc1ccc(Cl)cc1)NC(=N)Nc1ccc(Cl)cc1 [USD 18] | 6.25 (≈ 8.56 µM) | 0.76 (≈ 1.04 µM) | 0.76 (≈ 1.04 µM) | 3.12 (≈ 4.27 µM) | 6.25 (≈ 8.56 µM) | 0.39 (≈ 0.534 µM) | 12.5 (≈ 17.1 µM) | 6.25 (≈ 8.56 µM) | 0.78 (≈ 1.07 µM) | 0.76 (≈ 1.04 µM) | 0.76 (≈ 1.04 µM) | 3.12 (≈ 4.27 µM) | 50 (≈ 68.5 µM) | 12.5 (≈ 17.1 µM) | 6.25 (≈ 8.56 µM) | 3.12 (≈ 4.27 µM) | 3.12 (≈ 4.27 µM) | 3.15 (≈ 4.31 µM) | 6.25 (≈ 8.56 µM) | –
N=C(NCCN(CCNC(=N)NC(=N)Nc1ccc(C(F)(F)F)cc1)CCNC(=N)NC(=N)Nc1ccc(C(F)(F)F)cc1)NC(=N)Nc1ccc(C(F)(F)F)cc1 [USD 19] | 12.5 (≈ 15 µM) | 3.15 (≈ 3.79 µM) | – | 3.12 (≈ 3.76 µM) | 1.5 (≈ 1.81 µM) | – | 25 (≈ 30.1 µM) | – | 3.12 (≈ 3.76 µM) | 1.5 (≈ 1.81 µM) | – | 3.12 (≈ 3.76 µM) | 100 (≈ 120 µM) | – | 6.25 (≈ 7.52 µM) | – | 12.5 (≈ 15 µM) | 315 (≈ 379 µM) | – | –
Cl.Cl.N=C(NCCCCCCNC(=N)NC(=N)Nc1ccc(Cl)cc1)NC(=N)Nc1ccc(Cl)cc1 [USD 20, chlorhexidine dihydrochloride, reference compound] | 25 | – | 1.5 | 25 | – | 0.39 | – | 3.12 | 0.78 | – | 0.76 | 6.25 | – | 3.25 | – | 12.5 | 0.78 | – | 1.5 | 25

Reference: patent US12010996B2, “Tris-substituted biguanide compounds and their uses” (priority 2018, dated 2024)
